Experiment [1] has as its target SUV39H2 (Homo sapiens (Human), UniProt Q9H5I1). The experiment is described as follows: biochemical. The class given is biochemical. The settings on record: 3H-SAM 100 nM, H3 Histone Peptide 350 nM, room temperature 3 hours. In a few lines:
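Human SUV39H2, at a lot-specific concentration set by specific activity, was incubated with test compounds for 3 h at room temperature, then stopped with streptavidin SPA beads (50 μg/well final).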

In experiment [2] the test system is A549. Put plainly: Cell-based assay, anti-proliferative activity (Cell Counting Kit-8, 72 hours). To be noted: Homo sapiens, read-out: A549 IC50. The method, boiled down:
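Following seeding into 96-well microtiter plates, the cells receive candidate inhibitors, and cellular growth is quantified at the end of the exposure period. An IC50 is computed for each compound.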
For orientation: Tetrazolium dyes change colour on reduction, which living cells bring about.

[3] abbreviates: A549 cells, 72 hours exposure, Cell Counting Kit-8.

Structures can show the parent of a compound that is named as a salt. Where two headings read alike, the source gives them in different places.

Chain of SUV39H2 (Q9H5I1 whole entry): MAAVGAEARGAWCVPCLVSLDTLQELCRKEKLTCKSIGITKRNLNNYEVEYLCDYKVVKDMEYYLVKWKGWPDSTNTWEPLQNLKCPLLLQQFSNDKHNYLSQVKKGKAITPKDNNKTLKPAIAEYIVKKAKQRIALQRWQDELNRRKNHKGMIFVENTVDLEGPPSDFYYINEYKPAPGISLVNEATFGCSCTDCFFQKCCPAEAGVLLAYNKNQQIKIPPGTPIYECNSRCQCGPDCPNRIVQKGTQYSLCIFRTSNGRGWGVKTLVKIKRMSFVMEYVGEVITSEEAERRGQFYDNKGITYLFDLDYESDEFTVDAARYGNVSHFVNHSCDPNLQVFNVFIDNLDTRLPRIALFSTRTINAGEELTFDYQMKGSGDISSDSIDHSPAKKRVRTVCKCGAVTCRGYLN

By IC50 is commonly meant the point on the concentration scale where inhibition reaches its midpoint. In the case of `COc1cc(OC)c(-c2cn3ccc(N4CCN(c5nc(N)nc(N6CCC(N(C)C)C6)n5)CC4)cc3n2)cc1Cl` (stereo not drawn) [Example 436, 4-(4-(2-(5-chloro-2,4-dimethoxyphenyl)imidazo[1,2-a]pyridin-7-yl)piperazin-1-yl)-6-(3-(dimethylamino)pyrrolidin-1-yl)-1,3,5-triazin-2-amine], the IC50 in experiment [1] is 11.7 nM; in experiment [2] (setting [3]) it was 650 nM.

Turning to `COc1cc(OC)c(-c2cn3ccc(N4CCN(c5nccc(N6CCC(N)CC6)n5)CC4)cc3n2)cc1Cl` [Example 437, 1-(2-(4-(2-(5-chloro-2,4-dimethoxyphenyl)imidazo[1,2-a]pyridin-7-yl)piperazin-1-yl)pyrimidin-4-yl)piperidin-4-amine], the IC50 stood at 15.9 nM in experiment [1] and 740 nM in experiment [2] (setting [3]).

In the case of `COc1cc(OC)c(-c2cn3cc(Br)c(N4CC[C@H](NCc5ccncc5)C4)cc3n2)cc1Cl` [Example 438, (S)-1-(6-bromo-2-(5-chloro-2,4-dimethoxyphenyl)imidazo[1,2-a]pyridin-7-yl)-N-(pyridin-4-ylmethyl)pyrrolidin-3-amine], the results for the IC50 in experiment [1] and in experiment [2] (setting [3]) were 23.1 nM and 2400 nM, respectively.

Turning to `COc1cc(OC)c(-c2cn3ccc(N4CCN(c5nc(N)nc(N(C)C)n5)CC4)cc3n2)cc1Cl` [Example 440, 6-(4-(2-(5-chloro-2,4-dimethoxyphenyl)imidazo[1,2-a]pyridin-7-yl)piperazin-1-yl)-N^2,N^2-dimethyl-1,3,5-triazine-2,4-diamine], the values for the IC50 in experiment [1] and in experiment [2] (setting [3]) were 35.8 nM and 620 nM, respectively.

Regarding `COc1cc(OC)c(-c2cn3ccc(N4CCN(c5ncc(N6CCC(N)CC6)cn5)CC4)cc3n2)cc1Cl` [Example 441, 1-(2-(4-(2-(5-chloro-2,4-dimethoxyphenyl)imidazo[1,2-a]pyridin-7-yl)piperazin-1-yl)pyrimidin-5-yl)piperidin-4-amine], the IC50 in experiment [1] is 4.99 nM; in experiment [2] (setting [3]) it was 540 nM.

Regarding `COc1cc(OC)c(-c2cn3ccc(N4CCCN(CC5CCCC5)CC4)cc3n2)cc1Cl` [Example 442, 2-(5-chloro-2,4-dimethoxyphenyl)-7-(4-(cyclopentylmethyl)-1,4-diazepan-1-yl)imidazo[1,2-a]pyridine], the IC50 in experiment [1] is 13.9 nM; in experiment [2] (setting [3]) it was 730 nM.

On to `COc1cc(OC)c(-c2cn3ccc(N[C@H]4C[C@H]5CC[C@@H](C4)N5CC4CCCC4)cc3n2)cc1Cl` [Example 443, 2-(5-chloro-2,4-dimethoxyphenyl)-N-((1R,3r,5S)-8-(cyclopentylmethyl)-8-azabicyclo[3.2.1]octan-3-yl)imidazo[1,2-a]pyridin-7-amine], for which the concentration for half-maximal inhibition (IC50) is 17.3 nM in experiment [1] and 820 nM in experiment [2] (setting [3]).

On to `COc1cc(OC)c(-c2cn3ccc(N[C@H]4C[C@H]5CC[C@@H](C4)N5C(=O)OC(C)(C)C)cc3n2)cc1Cl` [Example 444, (1R,3r,5S)-tert-butyl 3-((2-(5-chloro-2,4-dimethoxyphenyl)imidazo[1,2-a]pyridin-7-yl)amino)-8-azabicyclo[3.2.1]octane-8-carboxylate], for which the IC50 in experiment [1] came to 78 nM; in experiment [2] (setting [3]), 780 nM.

`COc1cc(OC)c(-c2cn3cc(-c4ccc(C#N)cc4)c(N4CC[C@H](N)C4)cc3n2)cc1Cl` [Example 445, (S)-4-(7-(3-aminopyrrolidin-1-yl)-2-(5-chloro-2,4-dimethoxyphenyl)imidazo[1,2-a]pyridin-6-yl)benzonitrile dihydrochloride]: the 50% inhibitory concentration (IC50) in experiment [1] is 85.9 nM; in experiment [2] (A549, 72 h), 940 nM.

`COc1cc(OC)c(-c2cn3ccc(N4CCN(c5nc(N)nc(NC(C)(C)C)n5)CC4)cc3n2)cc1Cl` [Example 446, N^2-(tert-butyl)-6-(4-(2-(5-chloro-2,4-dimethoxyphenyl)imidazo[1,2-a]pyridin-7-yl)piperazin-1-yl)-1,3,5-triazine-2,4-diamine]: the concentration for half-maximal inhibition (IC50) came to 97.4 nM in experiment [1] and 430 nM in experiment [2] (setting [3]).

Take `COc1cc(OC)c(-c2cn3ccc(N[C@H]4C[C@H]5CC[C@@H](C4)N5CC4CCN(C(=O)OC(C)(C)C)CC4)cc3n2)cc1Cl` [Example 447, tert-butyl 4-(((1R,3r,5S)-3-((2-(5-chloro-2,4-dimethoxyphenyl)imidazo[1,2-a]pyridin-7-yl)amino)-8-azabicyclo[3.2.1]octan-8-yl)methyl)piperidine-1-carboxylate]: the 50% inhibitory concentration (IC50) in experiment [1] is 85.2 nM; in experiment [2] (setting [3]), 440 nM.

Regarding `COc1cc(OC)c(-c2cn3ccc(N[C@H]4C[C@H]5CC[C@@H](C4)N5Cc4ccncc4)cc3n2)cc1Cl` [Example 448, 2-(5-chloro-2,4-dimethoxyphenyl)-N-((1R,3r,5S)-8-(pyridin-4-ylmethyl)-8-azabicyclo[3.2.1]octan-3-yl)imidazo[1,2-a]pyridin-7-amine], the IC50 in experiment [1] was 22.6 nM; in experiment [2] (setting [3]) it was 340 nM.

For the compound `COc1cc(OC)c(-c2cn3ccc(N4CCN(c5ncnc(N6CCOCC6)n5)CC4)cc3n2)cc1Cl` [Example 449, 4-(4-(4-(2-(5-chloro-2,4-dimethoxyphenyl)imidazo[1,2-a]pyridin-7-yl)piperazin-1-yl)-1,3,5-triazin-2-yl)morpholine], the IC50 in experiment [1] amounted to 17.5 nM; in experiment [2] (A549, 72 h) it was 870 nM.

In the case of `COc1cc(OC)c(-c2cn3ccc(N4CCN(c5ncnc(N(C)C)n5)CC4)cc3n2)cc1Cl` [Example 450, 4-(4-(2-(5-chloro-2,4-dimethoxyphenyl)imidazo[1,2-a]pyridin-7-yl)piperazin-1-yl)-N,N-dimethyl-1,3,5-triazin-2-amine], the half-maximal inhibitory concentration (IC50) came to 33.6 nM in experiment [1] and 730 nM in experiment [2] (setting [3]).

For `CNc1ncnc(N2CCN(c3ccn4cc(-c5cc(Cl)c(OC)cc5OC)nc4c3)CC2)n1` [Example 451, 4-(4-(2-(5-chloro-2,4-dimethoxyphenyl)imidazo[1,2-a]pyridin-7-yl)piperazin-1-yl)-N-methyl-1,3,5-triazin-2-amine], the 50% inhibitory concentration (IC50) in experiment [1] worked out at 17 nM; in experiment [2] (setting [3]), 460 nM.

On to `COc1cc(OC)c(-c2cn3ccc(N[C@H]4C[C@H]5CC[C@@H](C4)N5CC(C)(C)C)cc3n2)cc1Cl` [Example 452, 2-(5-chloro-2,4-dimethoxyphenyl)-N-((1R,3r,5S)-8-neopentyl-8-azabicyclo[3.2.1]octan-3-yl)imidazo[1,2-a]pyridin-7-amine], for which the IC50 amounted to 42.6 nM in experiment [1] and 830 nM in experiment [2] (setting [3]).

Consider `COc1cc(OC)c(-c2cn3ccc(N4CCC(C(=O)NC5CCCCC5)CC4)cc3n2)cc1Cl` [Example 453, 1-(2-(5-chloro-2,4-dimethoxyphenyl)imidazo[1,2-a]pyridin-7-yl)-N-cyclohexylpiperidine-4-carboxamide], for which the IC50 in experiment [1] stood at 10.5 nM; in experiment [2] (setting [3]), 540 nM.

For the compound `COc1cc(OC)c(-c2cn3ccc(N4CCC[C@H](NCC5CCN(C(=O)OC(C)(C)C)CC5)C4)cc3n2)cc1Cl` [Example 454, (S)-tert-butyl 4-(((1-(2-(5-chloro-2,4-dimethoxyphenyl)imidazo[1,2-a]pyridin-7-yl)piperidin-3-yl)amino)methyl)piperidine-1-carboxylate], the half-maximal inhibitory concentration (IC50) in experiment [1] was 27 nM; in experiment [2] (setting [3]), 760 nM.

`COc1cc(OC)c(-c2cn3ccc(N4CCC[C@H](NCC5CCCCC5)C4)cc3n2)cc1Cl` [Example 455, (S)-1-(2-(5-chloro-2,4-dimethoxyphenyl)imidazo[1,2-a]pyridin-7-yl)-N-(cyclohexylmethyl)piperidin-3-amine]: the IC50 is 12.3 nM in experiment [1] and 920 nM in experiment [2] (setting [3]).

Take `COc1cc(OC)c(-c2cn3ccc(N4CCC(C(=O)Nc5ccccc5)CC4)cc3n2)cc1Cl` [Example 456, 1-(2-(5-chloro-2,4-dimethoxyphenyl)imidazo[1,2-a]pyridin-7-yl)-N-phenylpiperidine-4-carboxamide]: the values for the half-maximal inhibitory concentration (IC50) in experiment [1] and in experiment [2] (setting [3]) were 25.5 nM and 630 nM, respectively.

For the compound `COc1cc(OC)c(-c2cn3ccc(N[C@H]4C[C@H]5CC[C@@H](C4)N5C(=O)c4ccccc4)cc3n2)cc1Cl` [Example 457, ((1R,3r,5S)-3-((2-(5-chloro-2,4-dimethoxyphenyl)imidazo[1,2-a]pyridin-7-yl)amino)-8-azabicyclo[3.2.1]octan-8-yl)(phenyl)methanone], the IC50 in experiment [1] amounted to 34.8 nM; in experiment [2] (setting [3]), 820 nM.

For `CNC1CCN(c2cnc(N3CCN(c4ccn5cc(-c6cc(Cl)c(OC)cc6OC)nc5c4)CC3)nc2)CC1` [Example 458, 1-(2-(4-(2-(5-chloro-2,4-dimethoxyphenyl)imidazo[1,2-a]pyridin-7-yl)piperazin-1-yl)pyrimidin-5-yl)-N-methylpiperidin-4-amine], the figures for the half-inhibitory concentration (IC50) in experiment [1] and in experiment [2] (setting [3]) were 17.5 nM and 420 nM, respectively.

Take `COc1cc(OC)c(-c2cn3ccc(N4CCC(CNC(=O)OC(C)(C)C)C4)cc3n2)cc1Cl` (stereo not drawn) [Example 459, tert-butyl ((1-(2-(5-chloro-2,4-dimethoxyphenyl)imidazo[1,2-a]pyridin-7-yl)pyrrolidin-3-yl)methyl)carbamate]: the figures for the IC50 in experiment [1] and in experiment [2] (setting [3]) were 7.69 nM and 990 nM, respectively.

For `COc1cc(OC)c(-c2cn3ccc(N4CCC(C(=O)NC5CCN(C(=O)OC(C)(C)C)CC5)CC4)cc3n2)cc1Cl` [Example 460, tert-butyl 4-(1-(2-(5-chloro-2,4-dimethoxyphenyl)imidazo[1,2-a]pyridin-7-yl)piperidine-4-carboxamido)piperidine-1-carboxylate], the values for the IC50 in experiment [1] and in experiment [2] (setting [3]) were 20.7 nM and 690 nM, respectively.

These data come from US10508109B2 (priority 2015, dated 2019).
